From PubChem BioAssay AID2060605 (Molecular Pharmacology Branch, DTP, NCI, 2025)
Values joined by “and” are separate entries in the source; they are usually repeats but may differ in a detail not shown here. Equal entries are not always repeated. Values belong to the molecule of their own block, whether it stands above or below them.

Test system: 947758-054-R-J2-PDC spheroid growth, percent test/control
Assay: Anticancer human tumor 947758-054-R-J2-PDC patient-derived colon adenocarcinoma cell line growth inhibition [CLK]
Conditions: spheroids with HUVEC and MSC; for viability, T/C: stronger effect = lower value
Source text: A high-throughput screen of multi-cell type tumor spheroids was designed to identify active combinations of […] and targeted small molecules. Complex spheroids include a stromal component modeled by human endothelial cells (HUVEC) and fibroblasts modeled by human mesenchymal stem cells (MSCs). The concentration ranges selected for each drug and investigational agent were based upon clinically achievable concentrations if the clinical Cmax of the agent was known.
Compounds. The drugs and investigational agents: cirtuvivint (SM08502; NSC835563), CC-671 (NSC850746), vemurafenib (NSC761431), tapotoclax (NSC804041), sotorasib (NSC818433), adagrasib (NSC831453), MRTX-1133 (NSC836407), BAY2416964 (NSC825713), copanlisib (NSC816437), inavolisib (NSC800729), abemaciclib (NSC768073), osimertinib (NSC779217), entinostat (NSC756642), eltanexor (KPT-8602, NSC794443), venetoclax (NSC766270), ceralasertib (NSC777638), bortezomib (NSC756655), olaparib (NSC753686), talazoparib (NSC767125), alisertib (NSC759677), peposertib (NSC802822), gemcitabine (NSC613327), 5-fluorouracil (NSC19893), SN-38 (NSC673596), oxaliplatin (NSC266046), paclitaxel (NSC125973), and doxorubicin (NSC123127), were obtained from the National Cancer Institute (NCI) Developmental Therapeutics Program Chemical Repository. The FDA-approved anticancer drug set is available from the Developmental Therapeutics Program at https://dtp.cancer.gov/organization/dscb/obtaining/available plates.htm. […] The stock solutions were prepared in dimethyl sulfoxide (DMSO, Sigma-Aldrich, St. Louis, MO, cat. D2650), except for the platinum complexes which were prepared in saline (Quality Biological, Gaithersburg, MD, cat. 114-055-101), at 800-fold the tested concentration and stored at -70 degrees C prior to their use. All drugs and investigational agents were tested over a range starting from a high concentration at or near the clinical Cmax and decreasing in half-log increments. If the clinical Cmax for an agent had not been determined, the highest concentration tested was 10 microM.
Cell Culture. All cells were maintained in an incubator at 37 degrees C and 5% CO2 with 95% humidity. The PDC lines were cultured according to standard operating procedures established by the NCI PDMR. Briefly, all PDCs were thawed and cultured in Matrigel-coated flasks prepared with a working solution of 1X Ham's F-12 nutrient mix, without supplementation (Invitrogen, Waltham, MA, cat. 11765054), 100 U/mL penicillin-streptomycin (Invitrogen, cat. 15140122), and 2.5% Matrigel (Corning Inc., Corning, NY, cat. 354248) for the first three passages. The 947758-054-R-J2-PDC line was cultured in 6B/Colon 1A media, which includes advanced DMEM/F-12 (Thermo Fisher Scientific, cat. 12634028), 10 mM HEPES (Thermo Fisher Scientific, cat. 15630080), 1X GlutaMAX supplement (Thermo Fisher Scientific, cat. 35050061), 0.1 mg/mL primocin (InvivoGen, cat. ant-pm-2), 10% defined fetal bovine serum, heat inactivated (HyClone Laboratories Inc., cat. SH30070.03HI), 1.25 mM N-Acetyl-L-cysteine (Sigma-Aldrich, cat. A9165), 10 mM nicotinamide (Sigma-Aldrich, cat. N0636), 1X B-27 supplement (Thermo Fisher Scientific, cat. 17504044), 1X N-2 supplement (Thermo Fisher Scientific, cat. 17502048), and 10 microM Y-27632 dihydrochloride (Tocris Bioscience, cat. 1254). The 876862-298-R-J1-PDC was cultured in 6E media, which includes all 6B/Colon 1A media components plus 50% L-WRN conditioned media (ATCC, cat. CRL-3276), 50 ng/mL recombinant human EGF recombinant protein (hEGF; Thermo Fisher Scientific, cat. PHG0311), 10 ng/mL recombinant human fibroblast growth factor 10 (hGFG-10; PeproTech, cat. 100-26), 1 ng/mL recombinant human fibroblast growth factor 2 (hFGF-2; PeproTech, cat. 100-18B), and 1 µM prostaglandin E2 (PGE2; Tocris, cat. 2296). The 227483-062-R1-J1-PDC line was cultured in Panc media, containing all 6E components except hFGF-2, with the addition of 500 nM SB-431542 (Selleckchem, cat. S1067) and 10 nM gastrin (Tocris, cat. 3006). […]
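Further: spheroids exposed to compounds for one week before readout.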
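Wherever viability, T/C is given: 100% = DMSO vehicle control wells.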

IC50 (compound alone, run of 09/18/2023): 216 nM [middle of 10 runs]
Structure (SMILES): CN1CCN(c2cc(C(=O)Nc3cc4cc(-c5cnn(C)c5)ccc4cn3)ccn2)CC1
viability, T/C (compound 0.316 µM): 5.15% [middle of 12 runs] | viability, T/C (compound 1 µM): 0.61% [middle of 11 runs] | viability, T/C (compound 3.16 µM): 0.65% [middle of 10 runs] | viability, T/C (compound 10 µM): 0.36% [middle of 11 runs]

IC50 (curve of compound): > 10000 nM
Structure (SMILES): COc1ccc([C@@H](O)c2cc(-c3ncnc4cc(N5CCOCC5)ccc34)c(F)cc2Cl)nn1
viability, T/C (compound 0.0316 µM): 72.8% and 98.3% | viability, T/C (compound 0.1 µM): 69.7% and 91.4% | viability, T/C (compound 0.316 µM): 86.8% and 105% | viability, T/C (compound 1 µM): 108% and 82.2% | viability, T/C (compound 3.16 µM): 97.9% and 117% | viability, T/C (compound 10 µM): 65.9% and 83.9%

IC50 (curve of compound): 84.9 nM and 58.5 nM
Structure (SMILES): COc1cccc2c1C(=O)c1c(O)c3c(c(O)c1C2=O)CC(O)(C(=O)CO)CC3OC1CC(N)C(O)C(C)O1 (stereo not drawn)
viability, T/C (compound 0.0316 µM): 94.6% and 56.2% | viability, T/C (compound 0.1 µM): 39.9% and 44.2% | viability, T/C (compound 0.316 µM): 22.5% and 26.6% | viability, T/C (compound 1 µM): 11.3% | viability, T/C (compound 3.16 µM): 0.28% and 0.34% | viability, T/C (compound 10 µM): 3.11% and 2.84%

The remaining lines, values behind:

Structure (SMILES): CC(=O)O[C@H]1C(=O)[C@@]2(C)[C@H]([C@H](OC(=O)c3ccccc3)[C@]3(O)C[C@H](OC(=O)[C@H](O)[C@@H](NC(=O)c4ccccc4)c4ccccc4)C(C)=C1C3(C)C)[C@]1(OC(C)=O)CO[C@@H]1C[C@@H]2O
viability, T/C (compound 0.0316 µM): 7.6% and 8.82% | viability, T/C (compound 0.1 µM): 6.29% and 6.22% | viability, T/C (compound 0.316 µM): 5.41% and 6.88% | viability, T/C (compound 1 µM): 5.07% and 6.19% | viability, T/C (compound 3.16 µM): 6.6% and 8.41% | viability, T/C (compound 10 µM): 11.7% and 13.7% | IC50 (curve of compound): < 31.6 nM

Structure (SMILES): CCCS(=O)(=O)Nc1ccc(F)c(C(=O)c2c[nH]c3ncc(-c4ccc(Cl)cc4)cc23)c1F + CN1CCN(c2cc(C(=O)Nc3cc4cc(-c5cnn(C)c5)ccc4cn3)ccn2)CC1
IC50 (curve of first compound, second compound 0.0316 µM): > 10000 nM | IC50 (curve of first compound, second compound 0.1 µM): 910 nM | IC50 (curve of first compound, second compound 0.316 µM): < 31.6 nM | IC50 (curve of first compound, second compound 1 µM): < 31.6 nM | IC50 (curve of first compound, second compound 3.16 µM): < 31.6 nM | IC50 (curve of first compound, second compound 10 µM): < 31.6 nM | viability, T/C (second compound 0.0316 µM, first compound 0.0316 µM): 99.5% | viability, T/C (second compound 0.0316 µM, first compound 0.1 µM): 99.4% | viability, T/C (second compound 0.0316 µM, first compound 0.316 µM): 79.7% | viability, T/C (second compound 0.0316 µM, first compound 1 µM): 74.3% | viability, T/C (second compound 0.0316 µM, first compound 3.16 µM): 79.6% | viability, T/C (second compound 0.0316 µM, first compound 10 µM): 63.8% | viability, T/C (second compound 0.1 µM, first compound 0.0316 µM): 128% | viability, T/C (second compound 0.1 µM, first compound 0.1 µM): 176% | viability, T/C (second compound 0.1 µM, first compound 0.316 µM): 101% | viability, T/C (second compound 0.1 µM, first compound 1 µM): 50.9% | viability, T/C (second compound 0.1 µM, first compound 3.16 µM): 50.8% | viability, T/C (second compound 0.1 µM, first compound 10 µM): 34.5% | viability, T/C (second compound 0.316 µM, first compound 0.0316 µM): 3.8% | viability, T/C (second compound 0.316 µM, first compound 0.1 µM): 4.14% | viability, T/C (second compound 0.316 µM, first compound 0.316 µM): 4.9% | viability, T/C (second compound 0.316 µM, first compound 1 µM): 4.06% | viability, T/C (second compound 0.316 µM, first compound 3.16 µM): 4.73% | viability, T/C (second compound 0.316 µM, first compound 10 µM): 3.59% | viability, T/C (second compound 1 µM, first compound 0.0316 µM): 0.85% | viability, T/C (second compound 1 µM, first compound 0.1 µM): 1% | viability, T/C (second compound 1 µM, first compound 0.316 µM): 0.17% | viability, T/C (second compound 1 µM, first compound 1 µM): 0.15% | viability, T/C (second compound 1 µM, first compound 3.16 µM): 1.2% | viability, T/C (second compound 1 µM, first compound 10 µM): 0.11% | viability, T/C (second compound 3.16 µM, first compound 0.0316 µM): 0.94% | viability, T/C (second compound 3.16 µM, first compound 0.1 µM): 1.18% | viability, T/C (second compound 3.16 µM, first compound 0.316 µM): 1.32% | viability, T/C (second compound 3.16 µM, first compound 1 µM): 0.16% | viability, T/C (second compound 3.16 µM, first compound 3.16 µM): 0.84% | viability, T/C (second compound 3.16 µM, first compound 10 µM): 1.58% | viability, T/C (second compound 10 µM, first compound 0.0316 µM): 1.3% | viability, T/C (second compound 10 µM, first compound 0.1 µM): 1.75% | viability, T/C (second compound 10 µM, first compound 0.316 µM): 0.41% | viability, T/C (second compound 10 µM, first compound 1 µM): 0.42% | viability, T/C (second compound 10 µM, first compound 3.16 µM): 1.25% | viability, T/C (second compound 10 µM, first compound 10 µM): 0.41%
